Data: patent US20180000085A1, “USE OF PICOLINAMIDE COMPOUNDS WITH FUNGICIDAL ACTIVITY” (DOW AGROSCIENCES LLC, priority 2014, published 2018)

Experiments:
Type in all cases: in vivo
Puccinia triticina = experiment: Wheat brown rust (PUCCRT) disease control on wheat seedlings; conditions: low volume application, 125.1 g/H; for PUCCRT 1DP, LV activity at 125.1 g/H (% Control rating): 1 Day Protectant; for PUCCRT 3DC, LV activity at 125.1 g/H (% Control rating): 3 Day Curative
Zymoseptoria tritici = experiment: Leaf blotch of wheat (SEPTTR) disease control on wheat seedlings; conditions: low volume application, 125.1 g/H; for SEPTTR 1DP, LV activity at 125.1 g/H (% Control rating): 1 Day Protectant; for SEPTTR 3DC, LV activity at 125.1 g/H (% Control rating): 3 Day Curative
Phakopsora pachyrhizi = experiment: Asian soybean rust (PHAKPA) disease control; conditions: 25 ppm; for PHAKPA disease control, 1DP: 1 Day Protectant; for PHAKPA disease control, 3DC: 3 Day Curative

Row | SMILES | PUCCRT 1DP, LV activity at 125.1 g/H (% Control rating) (Puccinia triticina) | PUCCRT 3DC, LV activity at 125.1 g/H (% Control rating) (Puccinia triticina) | SEPTTR 1DP, LV activity at 125.1 g/H (% Control rating) (Zymoseptoria tritici) | SEPTTR 3DC, LV activity at 125.1 g/H (% Control rating) (Zymoseptoria tritici) | PHAKPA disease control, 1DP (Phakopsora pachyrhizi) | PHAKPA disease control, 3DC (Phakopsora pachyrhizi)
1 | COc1ccnc(C(=O)N[C@@H](C)C(=O)O[C@@H](C)[C@H](Oc2ccccc2)c2ccccc2)c1OC(C)=O [Cmpd 501] | A (> 80) | A (> 80) | A (> 80) | A (> 80) | B (≤ 80) | B (≤ 80)
2 | CC[C@@H](CCC(C)C)[C@H](Oc1ccccc1)[C@H](C)OC(=O)[C@H](C)NC(=O)c1nccc(OC)c1OCOC(C)=O [Cmpd 502] | A (> 80) | A (> 80) | A (> 80) | A (> 80) | A (> 80) | B (≤ 80)
3 | COc1ccnc(C(=O)N[C@@H](C)C(=O)O[C@@H](C)[C@@H](Cc2ccccc2)Oc2ccccc2)c1OCOC(C)=O [Cmpd 550] | A (> 80) | A (> 80) | A (> 80) | A (> 80) | B (≤ 80) | B (≤ 80)
4 | CCC(CC)[C@@H](OCC1CC1)[C@H](C)OC(=O)[C@H](C)NC(=O)c1nccc(OC)c1OCOC(C)=O [Cmpd 553] | A (> 80) | A (> 80) | B (≤ 80) | A (> 80) | A (> 80) | A (> 80)
5 | CCC(CC)[C@@H](OCC(C)C)[C@H](C)OC(=O)[C@H](C)NC(=O)c1nccc(OC)c1OCOC(C)=O [Cmpd 554] | A (> 80) | A (> 80) | B (≤ 80) | A (> 80) | A (> 80) | B (≤ 80)
6 | COc1ccnc(C(=O)N[C@@H](C)C(=O)O[C@@H](C)[C@H](Oc2cccc(Cl)c2)C(C)C)c1OCOC(C)=O [Cmpd 561] | A (> 80) | A (> 80) | A (> 80) | A (> 80) | A (> 80) | A (> 80)
7 | COc1ccnc(C(=O)N[C@@H](C)C(=O)O[C@@H](C)[C@H](Oc2ccc(Cl)cc2)C(C)C)c1OCOC(C)=O [Cmpd 563] | A (> 80) | A (> 80) | B (≤ 80) | A (> 80) | A (> 80) | B (≤ 80)
8 | COc1ccnc(C(=O)N[C@@H](C)C(=O)O[C@@H](C)[C@H](Oc2ccc(Cl)cc2)C(C)C)c1OC(C)=O [Cmpd 568] | A (> 80) | A (> 80) | B (≤ 80) | A (> 80) | A (> 80) | B (≤ 80)
9 | COc1ccnc(C(=O)N[C@H](C(=O)O[C@@H](C)[C@H](Oc2cccc(Cl)c2)C(C)C)C(C)C)c1OC(C)=O [Cmpd 569] | A (> 80) | A (> 80) | B (≤ 80) | A (> 80) | A (> 80) | B (≤ 80)
10 | COc1ccnc(C(=O)N[C@@H](C)C(=O)O[C@@H](C)[C@H](Oc2cccc(F)c2)c2ccccc2)c1OC(C)=O [Cmpd 575] | A (> 80) | A (> 80) | A (> 80) | A (> 80) | A (> 80) | B (≤ 80)
11 | CCC(CC)[C@@H](Oc1ccc(Cl)cc1)[C@H](C)OC(=O)[C@H](C)NC(=O)c1nccc(OC)c1OCOC(C)=O [Cmpd 589] | A (> 80) | A (> 80) | A (> 80) | A (> 80) | A (> 80) | B (≤ 80)
12 | CCC(CC)[C@@H](Oc1cc(F)cc(Cl)c1)[C@H](C)OC(=O)[C@H](C)NC(=O)c1nccc(OC)c1OCOC(C)=O [Cmpd 592] | A (> 80) | A (> 80) | A (> 80) | A (> 80) | A (> 80) | A (> 80)
13 | CCC(CC)[C@@H](Oc1ccccc1Cl)[C@H](C)OC(=O)[C@H](C)NC(=O)c1nccc(OC)c1OCOC(C)=O [Cmpd 593] | A (> 80) | A (> 80) | A (> 80) | A (> 80) | A (> 80) | B (≤ 80)
14 | CCC(CC)[C@@H](Oc1cccc(F)c1)[C@H](C)OC(=O)[C@H](C)NC(=O)c1nccc(OC)c1OC(C)=O [Cmpd 597] | A (> 80) | A (> 80) | A (> 80) | A (> 80) | A (> 80) | B (≤ 80)
15 | CCC(CC)[C@@H](Oc1ccc(F)cc1)[C@H](C)OC(=O)[C@H](C)NC(=O)c1nccc(OC)c1OC(C)=O [Cmpd 598] | A (> 80) | A (> 80) | A (> 80) | A (> 80) | A (> 80) | B (≤ 80)
16 | CCC(CC)[C@@H](Oc1cccc(Cl)c1)[C@H](C)OC(=O)[C@H](C)NC(=O)c1nccc(OC)c1OC(C)=O [Cmpd 599] | B (≤ 80) | A (> 80) | A (> 80) | A (> 80) | A (> 80) | A (> 80)
17 | CCC(CC)[C@@H](Oc1ccc(Cl)cc1)[C@H](C)OC(=O)[C@H](C)NC(=O)c1nccc(OC)c1OC(C)=O [Cmpd 600] | A (> 80) | A (> 80) | A (> 80) | A (> 80) | B (≤ 80) | B (≤ 80)
